The text below walks through data of US8536187B2 (Gilead Sciences, Inc., priority 2008, dated 2013).

Usually EC50 stands for the concentration needed to bring the measured effect to its halfway point. For orientation: CC50 means the concentration that lowers cell viability or growth by half. Read a low CC50 as harm at low concentration.

In data set [1] the test system is HCV replicon in human hepatoma Huh-7 cell line. Put plainly: Anti-HCV replicon assay, EC50 (luciferase luminescence). Conditions: Hepatitis C virus, Huh-7, 72 h. The format is cell-based. A digest of the protocol: (§1)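 Huh-7 cells carrying HCV replicon (6000/well) incubated with serially diluted compound, 0.5% DMSO final, 3 days at 37° C, 5% CO2. EC50 from luciferase luminescence after 30 min lysis/substrate at room temperature; CC50 from CellTiter-Glo luminescence after 10 min at room temperature.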

The nature of data set [2]: CC50 assay (CellTiter-Glo) in Huh-7 HCV replicon cells. It is filed as cell-based. Conditions: human. A digest of the protocol: as §1
Background: In ATP-based viability assays light output follows the ATP content of the culture.

For `CCOc1ccc(-c2ccc3nc(NCc4ccc(-n5cncn5)cc4)nc(OC4(C)CC4)c3n2)cc1S(N)(=O)=O` [Example 263, 5-(2-(4-(1H-1,2,4-triazol-1-yl)benzylamino)-4-(1-methylcyclopropoxy)pyrido [3,2-d)pyrimidin-6-yl)-2-ethoxybenzenesulfonamide], the EC50 in data set [1] is < 100 nM. This molecule showed a CC50 at 3 days in data set [2] (Table 2, 3 days incubation) of 1000 to 10000 nM.
The matching figures for `C[C@@H](Nc1nc(NC2(C(F)(F)F)CC2)c2nc(-c3cnc(NC4CC4)c(F)c3)ccc2n1)c1ccc(-n2cncn2)cc1` [Example 131, N^2-((R)-1-(4-(1H-1,2,4-triazol-1-yl)phenyl)ethyl)-6-(6-(cyclopropylamino)-5-fluoropyridin-3-yl)-N^4-(1-(trifluoromethyl)cyclopropyl) pyrido[3,2-d]pyrimidine-2,4-diamine]: 100 to 250 nM and 1000 to 10000 nM.
Regarding `CS(=O)(=O)c1cccc(-c2ccc3nc(NCc4ccc(-n5ccnc5)cc4)nc(NCC(F)(F)F)c3n2)c1` [Example 193, N^2-(4-(1H-imidazol-1-yl)benzyl)-6-(3-(methylsulfonyl)phenyl)-N^4-(2,2,2-trifluoroethyl) pyrido[3,2-d]pyrimidine-2,4-diamine], the EC50 in data set [1] is < 100 nM. Also, the CC50 at 3 days in data set [2] (Table 2, 3 days incubation) is > 10000 nM.
For `C[C@H](Cn1cncn1)Nc1nc(NCC(F)(F)F)c2nc(-c3ccc(OC(F)F)c(S(C)(=O)=O)c3)ccc2n1` [Example 206, N^2-((R)-1-(1H-1,2,4-triazol-1-yl)propan-2-yl)-6-(4-(difluoromethoxy)-3-(methylsulfonyl)phenyl)-N^4-(2,2,2-trifluoroethyl) pyrido[3,2-d]pyrimidine-2,4-diamine], the EC50 in data set [1] was 250 to 2000 nM. In addition, in data set [2] (Table 2, 3 days incubation), the CC50 at 3 days is > 10000 nM.
On to `FC(F)(F)CNc1nc(NCc2ccc(-n3cncn3)cc2)nc2ccc(-c3ccc(OC4CCC4)nc3)nc12` [Example 250, N^2-(4-(1H-1,2,4-triazol-1-yl)benzyl)-6-(6-cyclobutoxy-pyridin-3-yl)-N^4-(2,2,2-trifluoroethyl)pyrido[3,2-d] pyrimidine-2,4-diamine], for which the EC50 in data set [1] was < 100 nM. Besides, in data set [2] (Table 2, 3 days incubation), the CC50 at 3 days lay within 1000 to 10000 nM.
Take `COc1ccc(-c2ccc3nc(NCc4ccc(-n5cncn5)cc4)nc(NCC(F)(F)F)c3n2)cc1S(N)(=O)=O` [Example 237, 5-(2-(4-(1H-1,2,4-triazol-1-yl)benzylamino)-4-(2,2,2-trifluoroethylamino)pyrido [3,2-d]pyrimidin-6-yl)-2-methoxybenzenesulfonamide]: the EC50 in data set [1] was < 100 nM. For the same molecule, in data set [2] (Table 2, 3 days incubation), the CC50 at 3 days was > 10000 nM.
`C[C@@H](Nc1nc(OC2CC2)c2nc(-c3ccc(F)cc3)ccc2n1)c1ccc(S(N)(=O)=O)cc1` [Example 13, (R)-4-{1-[6-(4-Fluoro-phenyl)-4-cyclopropoxy-pyrido[3,2-d]pyrimidin-2-ylamino]-ethyl}-benzenesulfonamide] returned an EC50 in data set [1] of 100 to 250 nM. Moreover, the CC50 at 3 days in data set [2] (Table 1, 3 days incubation) lay within 10000 to 25000 nM.
On to `COc1ccc(-c2ccc3nc(NCc4ccc(F)c(F)c4)nc(NC4(C(F)(F)F)CC4)c3n2)cc1S(C)(=O)=O` [Example 44, N^2-(3,4-difluorobenzyl)-6-(4-methoxy-3-(methylsulfonyl)phenyl)-N^4-(1-(trifluoromethyl)cyclopropyl)pyrido[3,2-d] pyrimidine-2,4-diamine], for which the half-maximal effective concentration (EC50) in data set [1] is < 100 nM. The molecule further returned a CC50 at 3 days in data set [2] (Table 2, 3 days incubation) of 1000 to 10000 nM.
For the molecule `COc1ccc(-c2ccc3nc(NCc4ccc(S(N)(=O)=O)c(Cl)c4)nc(NCC(F)(F)F)c3n2)cc1S(C)(=O)=O` [Example 147, 2-chloro-4-((6-(4-methoxy-3-(methylsulfonyl)phenyl)-4-(2,2,2-trifluoroethylamino)pyrido[3,2-d]pyrimidin-2-ylamino)methyl)benzene-sulfonamide], the EC50 in data set [1] is < 100 nM. Also, in data set [2] (Table 2, 3 days incubation), the CC50 at 3 days is > 10000 nM.
Consider `N#Cc1cc(F)ccc1-c1ccc2nc(NCc3cccc(S(N)(=O)=O)c3)nc(NC3(C(F)(F)F)CC3)c2n1` [Example 98, 3-((6-(2-cyano-4-fluorophenyl)-4-(1-(trifluoromethyl)cyclopropyl-amino)pyrido[3,2-d]pyrimidin-2-ylamino)methyl)benzene-sulfonamide], for which, in data set [1], the EC50 is < 100 nM. In data set [2] (Table 2, 3 days incubation), this molecule had a CC50 at 3 days of 1000 to 10000 nM.
As to `C#Cc1ccc2nc(NCc3ccc(S(N)(=O)=O)cc3)nc(N[C@@H](C)C(F)(F)F)c2n1` [Example 289, (S)-4-((6-ethynyl-4-(1,1,1-trifluoropropan-2-ylamino)pyrido[3,2-d]pyrimidin-2-ylamino)methyl)benzene-sulfonamide], the EC50 in data set [1] was < 100 nM. In addition, the CC50 at 3 days in data set [2] (Table 2, 3 days incubation) was in the range of 1000 to 10000 nM.
On to `NS(=O)(=O)c1ccc(CNc2nc(NCC(F)(F)F)c3nc(C#CC4CC4)ccc3n2)cc1` [Example 279, 4-((6-(2-cyclopropylethynyl)-4-(2,2,2-trifluoroethylamino)pyrido[3,2-d]pyrimidin-2-ylamino)methyl)benzene-sulfonamide], for which, in data set [1], the EC50 fell in the range of 100 to 250 nM. In data set [2] (Table 2, 3 days incubation), the CC50 at 3 days is > 10000 nM.
For `NS(=O)(=O)c1ccc(CNc2nc(NC3(C(F)(F)F)CC3)c3nc(-c4ccc(F)cc4)ccc3n2)c(Cl)c1` [Example 43, 3-chloro-4-((6-(4-fluorophenyl)-4-(1-(trifluoromethyl)cyclopropyl-amino)pyrido[3,2-d]pyrimidin-2-ylamino)methyl)benzene-sulfonamide], the concentration for a half-maximal effect (EC50) in data set [1] was in the range of 250 to 2000 nM. Further, the CC50 at 3 days in data set [2] (Table 2, 3 days incubation) was > 10000 nM.
The matching figures for `COc1ccc(-c2ccc3nc(NCc4ccc(S(N)(=O)=O)cc4)nc(NC4(C(F)(F)F)CC4)c3n2)cc1S(C)(=O)=O` [Example 28, 4-{[6-(3-Methanesulfonyl-4-methoxy-phenyl)-4-(1-trifluoromethyl-cyclopropylamino)-pyrido[3,2-d]pyrimidin-2-ylamino]-methyl}-benzenesulfonamide]: < 100 nM and 1000 to 10000 nM.
As to `c1ncn(-c2ccc(CNc3nc(OC4CC4)c4nc(-c5cnc(OC6CC6)nc5)ccc4n3)cc2)n1` [Example 254, N-(4-(1H-1,2,4-triazol-1-yl)benzyl)-4-cyclopropoxy-6-(2-cyclopropoxypyrimidin-5-yl)pyrido[3,2-d]pyrimidin-2-amine], the EC50 in data set [1] was < 100 nM. Besides, the CC50 at 3 days in data set [2] (Table 2, 3 days incubation) was > 10000 nM.
The like results for `N#Cc1cc(F)ccc1-c1ccc2nc(NCc3cc(Cl)cc(S(N)(=O)=O)c3)nc(NC3(C(F)(F)F)CC3)c2n1` [Example 100, 3-chloro-5-((6-(2-cyano-4-fluorophenyl)-4-(1-(trifluoromethyl)cyclopropyl-amino)pyrido[3,2-d]pyrimidin-2-ylamino)methyl)benzene-sulfonamide] were, in that order, < 100 nM and 1000 to 10000 nM.
Regarding `NS(=O)(=O)c1cc(CNc2nc(NC3(C(F)(F)F)CC3)c3nc(-c4ccc(F)cc4)ccc3n2)ccc1Cl` [Example 88, 2-chloro-5-((6-(4-fluorophenyl)-4-(1-(trifluoromethyl)cyclopropyl-amino)pyrido[3,2-d]pyrimidin-2-ylamino)methyl)benzene-sulfonamide], the EC50 in data set [1] lay in the range of 100 to 250 nM. In addition, the CC50 at 3 days in data set [2] (Table 2, 3 days incubation) was > 10000 nM.
`NC(=O)c1ccc(CNc2nc(NC3(C(N)=O)CC3)c3nc(-c4ccc(F)cc4)ccc3n2)cn1` [Example 133, 5-((4-(1-carbamoylcyclo-propylamino)-6-(4-fluorophenyl)pyrido[3,2-d]pyrimidin-2-ylamino)methyl)picolinamide] yielded an EC50 in data set [1] of 100 to 250 nM. Further, the CC50 at 3 days in data set [2] (Table 2, 3 days incubation) is > 10000 nM.
The matching figures for `[2H]C([2H])([2H])C([2H])([2H])Oc1ccc(-c2ccc3nc(N[C@H](C)c4ccc(-n5cncn5)cc4)nc(NCC(F)(F)F)c3n2)cn1` [Example 255, N^2-((R)-1-(4-(1H-1,2,4-triazol-1-yl)phenyl)ethyl)-6-(6-pentadeuteroethoxypyridin-3-yl)-N^4-(2,2,2-trifluoroethyl) pyrido[3,2-d]pyrimidine-2,4-diamine]: < 100 nM and 1000 to 10000 nM.
